# Legend:
# Format in all cases: in vivo, human
# [1] = system: patients suffering from tinnitus; test: Clinical study of spirulina, PEA and their combination in the treatment of tinnitus; conditions: 2 patients per group, oral tablets 2x2/day for 5 days then 1x2/day for 10 days; PEA 350 mg and/or spirulina 650 mg per tablet; combination 65% spirulina, 35% PEA
# Protocol: A clinical study was performed to test the synergistic effect of the combination of spirulina (used as dry extract) and palmitoylethanolamide (PEA) in the treatment of tinnitus.
# In the study, six patients were treated, comprising both men and women, with a mean age of 49.6 years (person, person, person, person, person, […] women), who had been suffering from tinnitus for at least one year. […]
# The improvements regarding the tinnitus were declared by patients, while the improvement in hearing was measured via an audiometric test, carried out before and after administration of the combination in the invention. […]
# [2] = system: patients suffering from age-related macular degeneration; test: Clinical study in senile macular degeneration, Amsler test before and after treatment; conditions: 1 patient each, tablet 4x/day for 10 days then 2x/day for 30 days; PEA 450 mg and/or spirulina 550 mg per tablet; combination 55% spirulina, 45% PEA
# Protocol: A clinical study was performed to test the synergistic effect of the combination of spirulina (used as dry extract) and PEA in the treatment of senile macular degeneration.
# In the study, three patients were treated, comprising both men and women, who were suffering from age-related macular degeneration with the presence of macular drusen, i.e. localised deposits between the retinal pigment epithelium (RPE) and the Bruch membrane, together with geographic atrophy, characterised by RPE cell death and atrophy of the overlying photoreceptors.
# All the patients underwent an assessment with the Amsler test, prior to administration of the combination of spirulina and PEA. All three patients presented macular degeneration with distortion (metamorphopsia) or line breaks with an average degree of macular degeneration. […]
# [3] = system: patients with praecordial pain of cardiac origin (angina pectoris); test: Clinical study in angina pectoris (chest pain), stress ECG; conditions: 1 patient each, PEA 300 mg and/or spirulina 700 mg per tablet, combination 70% spirulina, 30% PEA
# Protocol: A clinical study was performed to test the synergistic effect of the combination of spirulina (used as dry extract) and PEA in the treatment of angina pectoris (chest pain).
# In the study, three patients were treated, comprising both men and women who suffered from praecordial pain of cardiac origin. Upon undergoing a stress ECG, all the patients presented anginal pain during the stress and all were undergoing specific treatments (antihypertensives, beta blockers), which—nevertheless—were unable to fully control the aforesaid symptoms. […]
# [4] = system: patients with peripheral neuropathy of diabetic origin; test: Clinical study in diabetic peripheral neuropathy: nerve conduction by neurological tuning fork, biothesiometer and Achilles reflex; conditions: 1 patient each, combination 35% spirulina, 65% PEA
# Protocol: A clinical study was performed to test the synergistic effect of the combination of spirulina (used as dry extract) and PEA in the treatment of peripheral neuropathy in diabetics.
# In the study, three patients were treated, comprising both men and women who suffered from peripheral neuropathy of diabetic origin. All the patients presented the classic symptoms of peripheral neuropathy, i.e. the classic symptoms consisting of paraesthesias, the sensation of ‘walking on cotton wool’, insensitivity to heat and/or cold, etc., and all the patients were undergoing specific treatments to control glycaemic values, in particular oral hypoglycaemic agents. The patients' glycaemia was tested, both at the beginning and the end of the study, to see if taking the product influenced glycaemic control in any way. All the patients had mean fasting glycaemia values of approximately 140 to 165 mg/dl. […]
# [5] = Fasting glycaemia at beginning and end of the diabetic peripheral neuropathy study; conditions: 1 patient each, 35 days, on oral hypoglycaemic agents; combination 35% spirulina, 65% PEA
# Protocol: In the study, three patients were treated, comprising both men and women who suffered from peripheral neuropathy of diabetic origin. All the patients presented the classic symptoms of peripheral neuropathy, i.e. the classic symptoms consisting of paraesthesias, the sensation of ‘walking on cotton wool’, insensitivity to heat and/or cold, etc., and all the patients were undergoing specific treatments to control glycaemic values, in particular oral hypoglycaemic agents. The patients' glycaemia was tested, both at the beginning and the end of the study, to see if taking the product influenced glycaemic control in any way. […]
# [6] = system: diabetic patients with altered renal functions; test: Clinical study in altered renal functions in diabetics: creatinine value at beginning and end
# Protocol: A clinical study was performed to test the synergistic effect of the combination of spirulina (used as dry extract) and PEA in the treatment of altered renal functions, preferably in diabetics.
# In the study, three patients were treated, comprising both men and women who suffered from diabetes. All patients presented altered renal functions, evidenced by the creatinine value, i.e. a creatinine value of over 4 mg/dl (normal values range from 0.7 to 1.3 mg/dl). All the patients were undergoing specific treatments (conventional drugs, such as Decadurabolin, etc.) which, nevertheless, were unable to control the renal dysfunction. The patients' creatinine values were tested, both at the beginning and the end of the clinical study assessment.
# In accordance with the present invention, the patients were treated according to the following schema: • the first patient was treated with a tablet comprising 650 mg of PEA, administered four times a day, for a daily total of 2,600 mg of PEA, for a duration of 5 days; next, the same patient was treated with one tablet, comprising 650 mg of PEA, administered twice a day, for a daily total of 1,300 mg of PEA, for a duration of 30 days; • the second patient was treated with a tablet comprising 350 mg of spirulina, administered four times a day, for a daily total of 1,400 mg of spirulina, for a duration of 5 days; next, the same patient was treated with one tablet, comprising 350 mg of spirulina, administered twice a day, for a daily total of 700 mg of spirulina, for a duration of 30 days; • next, the third patient was treated with one tablet, comprising 350 mg of spirulina and 650 mg of PEA, administered four times a day, for a daily total of 1,400 mg of spirulina combined with 2,600 mg of PEA, for a duration of 5 days; next, the same patient was treated with one tablet, comprising 350 mg of spirulina and 650 mg of PEA, administered twice a day, for a daily total of 700 mg of spirulina combined with 1,300 mg of PEA, for a duration of 30 days.
smiles,measurement,setting,value
"CCCCCCCCCCCCCCCC(=O)NCCO [PEA, Palmitoylethanolamide]",change in tinnitus perceived (declared by patients),[1],"neither the two patients treated with PEA, nor the two patients treated with spirulina showed variations in the tinnitus"
same,Amsler test result after treatment,[2],slight improvement in the Amsler test result
same,praecordial pain of cardiac origin when stress was increased during the stress ECG,[3]; 45 days,presented praecordial pain of cardiac origin
same,change in condition / capacity to endure the stress ECG versus before administration,"[3]; tablet 4x/day for 15 days then 2x/day for 30 days, added to treatments already underway",no significant changes in condition
same,nerve conduction assessed with tuning fork and biothesiometer,[4]; 35 days,slight response to the biothesiometry test
same,neuropathic symptoms / condition,"[4]; tablet 4x/day for 5 days then 2x/day for 30 days, PEA 650 mg and/or spirulina 350 mg per tablet",slight improvement in the neuropathic symptoms
same,glycaemic profile,[5],without any influence on the glycaemic profile
same,renal functions,"[6]; 1 diabetic patient each, tablet 4x/day for 5 days then 2x/day for 30 days, PEA 650 mg and/or spirulina 350 mg per tablet, combination 35% spirulina, 65% PEA",no improvement in renal functions
same,creatinine value at the end of the treatment,"[6]; after 35 days, normal values 0.7 to 1.3 mg/dl, combination 35% spirulina, 65% PEA",4.4 mg/dL
same,creatinine value at the beginning of the treatment,"[6]; baseline of the treated patient, normal values 0.7 to 1.3 mg/dl",4.3 mg/dL

# — patent US20170246227A1, “COMBINATION COMPRISING SPIRULINA AND PALMITOYLETHANOLAMIDE AND/OR SALTS OR PHARMACEUTICALLY ACCEPTABLE DERIVATIVES THEREOF AND THEIR FORMULATIONS, FOR USE IN THE PREVENTION AND/OR IN THE TREATMENT OF HYPERACTIVATED TISSUE CONDITIONS” (priority 2014, published 2017)
